Measured values taken from ChEMBL document CHEMBL3727350, “Agents and methods for treating ischemic and other diseases” (2014).

Molecular target: Transient receptor potential cation channel subfamily M member 7 (Mus musculus) (UniProt Q923J1)
Test: Inhibition of Tet-induced Flag-tagged mouse TRPM7 expressed in HEK293 cells assessed as inhibition of channel-mediated cell death in presence of Mg2+ incubated for 24 to 48 hrs by propidium iodide uptake assay
Type: cell-based
Set-up: concentration or dose not given beside the values
Conditions: concentration not given here

Chain of Transient receptor potential cation channel subfamily M member 7 (Mus musculus) (Q923J1 whole entry): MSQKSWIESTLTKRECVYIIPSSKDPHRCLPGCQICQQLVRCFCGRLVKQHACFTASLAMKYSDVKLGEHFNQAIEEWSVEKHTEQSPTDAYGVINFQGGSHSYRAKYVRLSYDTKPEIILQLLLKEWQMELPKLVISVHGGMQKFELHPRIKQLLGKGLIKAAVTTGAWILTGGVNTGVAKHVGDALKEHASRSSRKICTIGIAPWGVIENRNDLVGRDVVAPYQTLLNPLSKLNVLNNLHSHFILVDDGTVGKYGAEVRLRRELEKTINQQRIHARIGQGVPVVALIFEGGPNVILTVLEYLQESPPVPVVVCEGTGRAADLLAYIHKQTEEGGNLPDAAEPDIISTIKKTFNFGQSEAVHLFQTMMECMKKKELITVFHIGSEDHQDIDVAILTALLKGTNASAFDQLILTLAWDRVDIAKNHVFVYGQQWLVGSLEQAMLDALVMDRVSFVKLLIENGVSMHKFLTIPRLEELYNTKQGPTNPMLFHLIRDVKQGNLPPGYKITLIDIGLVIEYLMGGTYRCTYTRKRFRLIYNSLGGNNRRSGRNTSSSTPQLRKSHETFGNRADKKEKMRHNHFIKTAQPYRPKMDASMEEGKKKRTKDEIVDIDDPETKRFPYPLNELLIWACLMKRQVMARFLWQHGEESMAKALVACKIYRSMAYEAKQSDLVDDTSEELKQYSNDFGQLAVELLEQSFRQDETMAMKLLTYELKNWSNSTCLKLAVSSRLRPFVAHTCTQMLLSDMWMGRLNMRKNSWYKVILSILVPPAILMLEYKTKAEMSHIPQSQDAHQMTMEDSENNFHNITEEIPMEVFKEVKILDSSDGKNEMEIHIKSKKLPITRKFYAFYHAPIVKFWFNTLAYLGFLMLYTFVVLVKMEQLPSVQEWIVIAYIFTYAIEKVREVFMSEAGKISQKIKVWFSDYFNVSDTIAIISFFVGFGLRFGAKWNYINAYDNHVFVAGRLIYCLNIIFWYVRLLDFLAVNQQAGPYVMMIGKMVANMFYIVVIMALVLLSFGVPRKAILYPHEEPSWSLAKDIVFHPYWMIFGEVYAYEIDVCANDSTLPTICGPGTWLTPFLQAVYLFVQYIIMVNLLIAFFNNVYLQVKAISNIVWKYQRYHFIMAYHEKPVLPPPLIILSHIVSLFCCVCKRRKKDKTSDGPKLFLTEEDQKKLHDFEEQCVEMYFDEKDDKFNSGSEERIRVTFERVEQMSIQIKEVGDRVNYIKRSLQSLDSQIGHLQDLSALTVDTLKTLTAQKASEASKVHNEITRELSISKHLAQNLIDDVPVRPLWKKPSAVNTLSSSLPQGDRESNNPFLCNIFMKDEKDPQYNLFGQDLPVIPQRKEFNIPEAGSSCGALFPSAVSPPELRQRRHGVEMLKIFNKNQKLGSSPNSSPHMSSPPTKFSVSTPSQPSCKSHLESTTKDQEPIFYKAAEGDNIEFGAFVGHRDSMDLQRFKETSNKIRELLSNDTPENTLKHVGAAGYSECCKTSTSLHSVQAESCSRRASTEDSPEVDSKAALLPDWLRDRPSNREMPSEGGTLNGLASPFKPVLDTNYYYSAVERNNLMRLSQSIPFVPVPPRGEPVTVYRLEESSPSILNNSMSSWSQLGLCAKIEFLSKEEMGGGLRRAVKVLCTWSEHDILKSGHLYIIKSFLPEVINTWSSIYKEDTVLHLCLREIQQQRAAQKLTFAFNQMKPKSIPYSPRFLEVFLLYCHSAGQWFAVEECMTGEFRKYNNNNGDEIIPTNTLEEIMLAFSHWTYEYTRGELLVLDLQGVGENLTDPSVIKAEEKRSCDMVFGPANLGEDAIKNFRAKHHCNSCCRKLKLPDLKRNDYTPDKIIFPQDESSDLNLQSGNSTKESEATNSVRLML

Compound	inhibition [%]
C#Cc1cccc(NC(=O)c2c(-c3c(Cl)cccc3Cl)noc2C)c1	< 30
CSC1=N/C(=C\c2ccccc2O)C(=O)N1Cc1ccco1	< 30
CC12CCC(C(=O)N3CCSCC3)(OC1=O)C2(C)C (configuration not stated)	< 30
O=C(N/C=C/c1cccs1)Nc1ccc(Cl)cc1	< 30
C=CC/N=C1/NC(=O)C(CC(=O)Nc2ccc(Cl)cc2)S1 (configuration not stated)	50
O=C(CCSCc1ccc(Cl)cc1)Nc1ccc(Cl)cc1	60
O=[N+]([O-])C1=Cc2c(ccc3ccccc23)OC1c1c(Cl)cccc1Cl (configuration not stated)	60
Cc1c(-c2nc(-c3ccc([N+](=O)[O-])o3)no2)n(C)oc1=O	< 30
O=C1/C(=C\c2ccc3c(c2)OCO3)C(c2ccccc2)Oc2ccccc21 (configuration not stated)	50
CCOC(=O)CCc1cc(/N=C/c2cc(Cl)cc(Cl)c2O)c(O)c(/N=C/c2cc(Cl)cc(Cl)c2O)c1	50
CO[C@@H]1O[C@@H]2CO[C@H](COC(C)=O)[C@]3(OC(C)=O)CO[C@H](OC2[C@H](OC(C)=O)[C@H]1OC(C)=O)[C@@H](OC(C)=O)[C@@H]3OC(C)=O (some centres not stated)	40
Cc1onc(-c2c(Cl)cccc2Cl)c1C(=O)Nc1cccc2nsnc12	30
